Measured values from ChEMBL document CHEMBL1157496, “Design, synthesis, and evaluation of a novel 4-aminomethyl-4-fluoropiperidine as a T-type Ca2+ channel antagonist” (J Med Chem, 2008).
Values belong to the molecule of their own block, whether it stands above or below them.

Columns and labels:
[1] = molecular target: Voltage-dependent T-type calcium channel subunit alpha-1I (Homo sapiens) (UniProt Q9P0X4); assay: Antagonist activity at T type calcium channel Cav3.3 alpha1i at -60 mV by FLIPR assay; assay type: functional
Chain of Voltage-dependent T-type calcium channel subunit alpha-1I (Homo sapiens) (Q9P0X4 whole entry): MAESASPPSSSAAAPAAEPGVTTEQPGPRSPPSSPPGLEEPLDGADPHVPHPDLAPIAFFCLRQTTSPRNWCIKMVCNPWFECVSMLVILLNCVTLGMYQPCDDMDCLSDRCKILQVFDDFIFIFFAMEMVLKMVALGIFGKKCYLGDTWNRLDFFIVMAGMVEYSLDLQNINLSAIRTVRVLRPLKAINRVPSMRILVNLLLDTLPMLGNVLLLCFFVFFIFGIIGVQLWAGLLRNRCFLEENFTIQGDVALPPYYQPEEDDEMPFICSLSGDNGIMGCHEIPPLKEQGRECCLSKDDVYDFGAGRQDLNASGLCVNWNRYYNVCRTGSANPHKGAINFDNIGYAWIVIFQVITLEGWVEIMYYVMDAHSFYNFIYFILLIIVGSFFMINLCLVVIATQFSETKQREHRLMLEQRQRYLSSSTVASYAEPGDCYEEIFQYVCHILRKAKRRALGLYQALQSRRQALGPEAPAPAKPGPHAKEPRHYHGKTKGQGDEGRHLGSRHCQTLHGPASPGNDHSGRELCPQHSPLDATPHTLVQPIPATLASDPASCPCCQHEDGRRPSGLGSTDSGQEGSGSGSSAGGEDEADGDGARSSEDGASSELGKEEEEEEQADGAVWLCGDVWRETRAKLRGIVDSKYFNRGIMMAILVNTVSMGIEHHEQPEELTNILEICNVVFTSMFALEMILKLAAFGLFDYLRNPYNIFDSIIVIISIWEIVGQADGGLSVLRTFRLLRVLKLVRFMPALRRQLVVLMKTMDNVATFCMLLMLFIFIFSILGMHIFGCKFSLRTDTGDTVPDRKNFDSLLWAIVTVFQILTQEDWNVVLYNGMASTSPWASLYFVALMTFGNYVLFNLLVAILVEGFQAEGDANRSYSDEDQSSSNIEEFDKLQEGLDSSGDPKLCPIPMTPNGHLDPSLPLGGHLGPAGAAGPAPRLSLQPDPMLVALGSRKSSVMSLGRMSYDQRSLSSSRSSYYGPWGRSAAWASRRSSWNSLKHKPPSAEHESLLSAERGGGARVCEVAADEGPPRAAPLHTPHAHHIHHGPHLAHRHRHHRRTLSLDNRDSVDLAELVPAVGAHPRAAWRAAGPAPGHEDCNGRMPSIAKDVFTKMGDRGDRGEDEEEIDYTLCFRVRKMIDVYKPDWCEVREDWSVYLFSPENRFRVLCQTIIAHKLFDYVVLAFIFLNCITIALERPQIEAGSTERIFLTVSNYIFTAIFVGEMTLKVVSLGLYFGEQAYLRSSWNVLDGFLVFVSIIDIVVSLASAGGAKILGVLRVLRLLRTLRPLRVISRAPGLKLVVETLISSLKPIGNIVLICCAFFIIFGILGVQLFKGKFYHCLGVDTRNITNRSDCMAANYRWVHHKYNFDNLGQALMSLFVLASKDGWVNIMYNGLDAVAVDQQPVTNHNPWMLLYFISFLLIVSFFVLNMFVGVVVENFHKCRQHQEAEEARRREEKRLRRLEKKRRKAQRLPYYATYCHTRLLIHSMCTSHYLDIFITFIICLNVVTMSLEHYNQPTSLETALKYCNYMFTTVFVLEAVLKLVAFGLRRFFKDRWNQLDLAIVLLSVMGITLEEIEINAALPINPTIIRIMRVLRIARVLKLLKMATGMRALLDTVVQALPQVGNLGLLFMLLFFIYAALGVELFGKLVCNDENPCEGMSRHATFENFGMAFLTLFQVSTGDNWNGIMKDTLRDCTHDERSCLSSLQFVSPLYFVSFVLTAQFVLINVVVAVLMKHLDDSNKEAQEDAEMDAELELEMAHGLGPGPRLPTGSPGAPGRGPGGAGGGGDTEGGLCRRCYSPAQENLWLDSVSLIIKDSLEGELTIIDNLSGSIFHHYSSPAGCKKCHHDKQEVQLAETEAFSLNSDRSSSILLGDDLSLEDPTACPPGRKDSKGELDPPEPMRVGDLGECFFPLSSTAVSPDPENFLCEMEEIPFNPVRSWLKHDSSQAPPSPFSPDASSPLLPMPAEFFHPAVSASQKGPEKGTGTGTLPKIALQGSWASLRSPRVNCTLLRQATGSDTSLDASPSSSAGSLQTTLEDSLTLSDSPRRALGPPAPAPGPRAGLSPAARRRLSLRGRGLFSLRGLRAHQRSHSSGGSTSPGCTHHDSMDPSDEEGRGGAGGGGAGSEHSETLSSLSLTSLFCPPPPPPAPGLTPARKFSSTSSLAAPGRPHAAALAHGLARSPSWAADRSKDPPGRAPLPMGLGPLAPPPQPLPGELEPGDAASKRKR

[2] = molecular target: Voltage-dependent T-type calcium channel subunit alpha-1I (Homo sapiens) (UniProt Q9P0X4); assay: Antagonist activity at T type calcium channel Cav3.3 alpha1i at -20 mV by FLIPR assay; assay type: functional
Rattus norvegicus [3] = species on record: Rattus norvegicus; assay: Decrease in seizure time in Wistar albino Glaxo rat model of absence epilepsy after 4 hrs; assay type: functional
Canis familiaris [4] = assay: Toxicity in dog assessed as effect on urinary excretion of sodium and potassium at 20 mg/kg, po after 3 hrs; assay type: organism-based, Canis lupus familiaris, Urine; design: dose 20 mg/kg, route oral; settings: in vivo
[5] = Oral bioavailability in dog at 1 mg/kg; assay type: ADME, organism-based, Canis lupus familiaris; settings: in vivo
[6] = molecular target: Voltage-dependent T-type calcium channel subunit alpha-1G (Homo sapiens) (UniProt O43497); assay: Antagonist activity at T type calcium channel Cav3.1 alpha-1G at -100 mV by voltage-clamp electrophysiology assay; assay type: functional
[7] = Tmax in rat at 10 mg/kg, po; assay type: ADME, organism-based; design: dose 10 mg/kg, route oral; settings: in vivo
[8] = Volume of distribution at steady state in monkey at 0.5 mg/kg, iv; assay type: ADME, organism-based, Macaca mulatta; design: dose 0.5 mg/kg, route intravenous; settings: rhesus monkey, in vivo, read-out: Vdss
[9] = Clearance in monkey at 0.5 mg/kg, iv; assay type: ADME, organism-based, Macaca mulatta; design: dose 0.5 mg/kg, route intravenous; settings: rhesus monkey, in vivo
[10] = AUC (0 to 4 hrs) in Wistar albino Glaxo rat model of absence epilepsy at 10 mg/kg; assay type: ADME, organism-based; design: time < 4 hr, dose 10 mg/kg; settings: in vivo
[11] = Half life in rat at 1 mg/kg, iv; assay type: ADME, organism-based; design: dose 1 mg/kg, route intravenous; settings: in vivo
[12] = Antagonist activity at sigma receptor in guinea pig vas deferens at 30 uM; assay type: functional, Cavia porcellus; design: scale not given: the % may be the effect or the level left
[13] = AUC (0 to 24 hrs) in dog at 1 mg/kg, po; assay type: ADME, organism-based, Canis lupus familiaris; design: time < 24 hr, dose 1 mg/kg, route oral; settings: plasma
[14] = Cmax in rat at 10 mg/kg, po; assay type: ADME, organism-based; design: dose 10 mg/kg, route oral; settings: in vivo
[15] = Inhibition of sodium channel site 2 by binding assay
[16] = Tmax in dog at 1 mg/kg, po; assay type: ADME, organism-based, Canis lupus familiaris; design: dose 1 mg/kg, route oral; settings: in vivo
Canis familiaris [17] = assay: Toxicity in dog assessed as effect on urine flow at 20 mg/kg, po after 3 hrs; assay type: organism-based, Canis lupus familiaris; design: dose 20 mg/kg, route oral; settings: in vivo
[18] = Protein binding in dog plasma; assay type: ADME, cell-free, Canis lupus familiaris; settings: read-out: PPB
[19] = molecular target: Voltage-dependent T-type calcium channel subunit alpha-1H (Homo sapiens) (UniProt O95180); assay: Antagonist activity at T type calcium channel Cav3.2 alpha-1H at -100 mV by voltage-clamp electrophysiology assay; assay type: functional
[20] = Protein binding in rat plasma; assay type: ADME, cell-free; settings: read-out: PPB (converted)
[21] = molecular target: Sodium channel protein type 5 subunit alpha (Homo sapiens, UniProt Q14524); assay: Inhibition of sodium channel Nav1.5 by voltage-clamp method
[22] = Volume of distribution at steady state in dog at 0.5 mg/kg, iv; assay type: ADME, organism-based, Canis lupus familiaris; design: dose 0.5 mg/kg, route intravenous; settings: in vivo, read-out: Vdss
[23] = Antagonist activity at T type calcium channel at -80 mV by voltage-clamp electrophysiology assay; assay type: functional
Canis familiaris [24] = assay: Drug level in dog plasma at 20 mg/kg, po; assay type: ADME, organism-based, Canis lupus familiaris; design: dose 20 mg/kg, route oral; settings: in vivo, read-out: Drug uptake
[25] = Oral bioavailability in monkey at 2 mg/kg; assay type: ADME, organism-based, Macaca mulatta; settings: rhesus monkey, in vivo
[26] = molecular target: Voltage-dependent N-type calcium channel subunit alpha-1B (Homo sapiens) (UniProt Q00975); assay: Inhibition of calcium channel Cav2.2 at 10 uM by high throughput assay
Chain of Voltage-dependent N-type calcium channel subunit alpha-1B (Homo sapiens) (Q00975 whole entry, looked up): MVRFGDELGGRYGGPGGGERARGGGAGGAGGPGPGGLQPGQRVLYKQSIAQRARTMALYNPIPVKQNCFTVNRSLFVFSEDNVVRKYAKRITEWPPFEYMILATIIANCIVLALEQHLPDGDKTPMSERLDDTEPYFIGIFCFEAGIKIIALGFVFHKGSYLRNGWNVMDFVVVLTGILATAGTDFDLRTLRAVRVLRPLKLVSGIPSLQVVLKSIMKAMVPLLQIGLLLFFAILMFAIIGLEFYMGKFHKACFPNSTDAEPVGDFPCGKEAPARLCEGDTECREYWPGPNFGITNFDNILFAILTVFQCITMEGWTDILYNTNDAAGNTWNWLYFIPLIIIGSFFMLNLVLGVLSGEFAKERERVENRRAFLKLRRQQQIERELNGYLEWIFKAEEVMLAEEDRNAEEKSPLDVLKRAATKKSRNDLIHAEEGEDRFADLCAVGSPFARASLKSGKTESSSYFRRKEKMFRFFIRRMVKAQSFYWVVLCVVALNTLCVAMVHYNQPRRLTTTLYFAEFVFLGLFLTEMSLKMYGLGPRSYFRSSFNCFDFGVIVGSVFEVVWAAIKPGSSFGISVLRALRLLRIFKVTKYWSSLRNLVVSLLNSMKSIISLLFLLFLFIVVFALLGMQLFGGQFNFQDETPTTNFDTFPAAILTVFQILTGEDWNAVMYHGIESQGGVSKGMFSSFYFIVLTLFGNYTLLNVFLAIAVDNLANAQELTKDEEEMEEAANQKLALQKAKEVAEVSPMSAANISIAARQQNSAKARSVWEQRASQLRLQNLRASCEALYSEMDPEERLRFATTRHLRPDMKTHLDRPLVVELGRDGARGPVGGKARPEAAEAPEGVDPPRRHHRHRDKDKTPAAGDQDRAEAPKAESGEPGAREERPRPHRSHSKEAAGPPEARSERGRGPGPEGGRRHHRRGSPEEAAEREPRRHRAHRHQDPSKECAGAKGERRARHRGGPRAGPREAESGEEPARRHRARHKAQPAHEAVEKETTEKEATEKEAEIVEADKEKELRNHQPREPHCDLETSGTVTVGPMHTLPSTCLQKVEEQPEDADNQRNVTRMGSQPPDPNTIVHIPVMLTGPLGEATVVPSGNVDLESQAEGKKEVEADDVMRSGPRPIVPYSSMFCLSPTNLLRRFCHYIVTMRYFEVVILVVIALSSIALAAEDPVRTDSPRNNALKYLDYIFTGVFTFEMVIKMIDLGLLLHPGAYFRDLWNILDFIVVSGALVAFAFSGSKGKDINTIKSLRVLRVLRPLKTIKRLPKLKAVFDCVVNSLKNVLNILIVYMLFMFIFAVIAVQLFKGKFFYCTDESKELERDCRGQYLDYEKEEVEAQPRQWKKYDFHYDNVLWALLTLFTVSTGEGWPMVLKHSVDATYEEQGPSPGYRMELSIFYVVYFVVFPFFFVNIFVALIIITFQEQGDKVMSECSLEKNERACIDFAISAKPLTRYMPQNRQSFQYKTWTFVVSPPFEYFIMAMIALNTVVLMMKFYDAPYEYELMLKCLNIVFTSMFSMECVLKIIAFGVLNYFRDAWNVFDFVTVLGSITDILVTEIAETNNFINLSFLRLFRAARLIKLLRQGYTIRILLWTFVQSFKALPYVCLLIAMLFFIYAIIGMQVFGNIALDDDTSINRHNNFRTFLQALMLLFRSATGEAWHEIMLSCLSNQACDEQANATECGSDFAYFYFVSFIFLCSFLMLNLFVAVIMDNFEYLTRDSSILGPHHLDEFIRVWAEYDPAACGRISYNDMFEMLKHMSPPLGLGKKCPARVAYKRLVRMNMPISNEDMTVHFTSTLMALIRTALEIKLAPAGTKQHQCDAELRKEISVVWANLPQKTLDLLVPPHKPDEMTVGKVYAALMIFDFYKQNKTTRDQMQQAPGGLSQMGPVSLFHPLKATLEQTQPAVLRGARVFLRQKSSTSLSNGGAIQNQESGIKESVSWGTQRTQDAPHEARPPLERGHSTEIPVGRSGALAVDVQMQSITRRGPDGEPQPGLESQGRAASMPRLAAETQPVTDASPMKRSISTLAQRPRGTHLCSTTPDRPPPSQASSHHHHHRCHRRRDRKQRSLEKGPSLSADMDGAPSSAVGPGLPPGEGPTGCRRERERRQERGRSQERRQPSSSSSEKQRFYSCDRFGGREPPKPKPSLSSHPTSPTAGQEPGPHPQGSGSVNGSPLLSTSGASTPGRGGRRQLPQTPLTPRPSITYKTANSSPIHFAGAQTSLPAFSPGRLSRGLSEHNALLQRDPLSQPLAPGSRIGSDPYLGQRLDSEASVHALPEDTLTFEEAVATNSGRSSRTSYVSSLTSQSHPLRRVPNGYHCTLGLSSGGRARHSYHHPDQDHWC

[27] = Antagonist activity at T type calcium channel at -100 mV by voltage-clamp electrophysiology assay; assay type: functional
[28] = Cmax in Wistar albino Glaxo rat model of absence epilepsy at 3 mg/kg; assay type: ADME, organism-based; design: dose 3 mg/kg; settings: in vivo
Rattus norvegicus [29] = species on record: Rattus norvegicus; assay: Decrease in tremor activity in harmaline-induced rat model; assay type: functional, organism-based
[30] = Ratio of drug level in brain to plasma in rat after 9 hrs; assay type: ADME, cell-free
[31] = AUC (0 to 24 hrs) in monkey at 2 mg/kg, po; assay type: ADME, organism-based, Macaca mulatta; design: time < 24 hr, dose 2 mg/kg, route oral; settings: rhesus monkey, plasma
[32] = Oral bioavailability in rat at 10 mg/kg; assay type: ADME, organism-based; settings: in vivo
[33] = Half life in dog at 0.5 mg/kg, iv; assay type: ADME, organism-based, Canis lupus familiaris; design: dose 0.5 mg/kg, route intravenous; settings: in vivo
[34] = Cmax in Wistar albino Glaxo rat model of absence epilepsy at 10 mg/kg; assay type: ADME, organism-based; design: dose 10 mg/kg; settings: in vivo
[35] = Clearance in rat at 1 mg/kg, iv; assay type: ADME, organism-based; design: dose 1 mg/kg, route intravenous; settings: in vivo
[36] = Half life in monkey at 0.5 mg/kg, iv; assay type: ADME, organism-based, Macaca mulatta; design: dose 0.5 mg/kg, route intravenous; settings: rhesus monkey, in vivo
[37] = Drug level in dog plasma at 1.29 mg/kg, iv measured at end of 60 mins infusion; assay type: ADME, organism-based, Canis lupus familiaris; design: dose 1.29 mg/kg, route intravenous; settings: read-out: Drug uptake
Canis familiaris [38] = assay: Toxicity in dog assessed as increase in heart rate at 20 mg/kg, po after 3 hrs; assay type: organism-based, Canis lupus familiaris; design: dose 20 mg/kg, route oral; settings: in vivo
Canis familiaris [39] = assay: Toxicity in dog assessed as effect on renal plasma flow at 20 mg/kg, po after 3 hrs; assay type: organism-based, Canis lupus familiaris; design: dose 20 mg/kg, route oral; settings: in vivo
[40] = Protein binding in monkey plasma; assay type: ADME, cell-free, Macaca mulatta; settings: rhesus monkey, read-out: PPB (converted)
[41] = AUC (0 to 4 hrs) in Wistar albino Glaxo rat model of absence epilepsy at 1 mg/kg; assay type: ADME, organism-based; design: time < 4 hr, dose 1 mg/kg; settings: in vivo
[42] = Binding affinity to sigma receptor
[43] = AUC (0 to 24 hrs) in rat at 10 mg/kg, po; assay type: ADME, organism-based; design: time < 24 hr, dose 10 mg/kg, route oral; settings: plasma
[44] = Tmax in monkey at 2 mg/kg, po; assay type: ADME, organism-based, Macaca mulatta; design: dose 2 mg/kg, route oral; settings: rhesus monkey, in vivo
[45] = Volume of distribution at steady state in rat at 1 mg/kg, iv; assay type: ADME, organism-based; design: dose 1 mg/kg, route intravenous; settings: in vivo, read-out: Vdss
Canis familiaris [46] = assay: Toxicity in dog assessed as effect on blood pressure at 20 mg/kg, po after 3 hrs; assay type: organism-based, Canis lupus familiaris; design: dose 20 mg/kg, route oral; settings: in vivo
[47] = Cmax in monkey at 2 mg/kg, po; assay type: ADME, organism-based, Macaca mulatta; design: dose 2 mg/kg, route oral; settings: rhesus monkey, in vivo
Canis familiaris [48] = assay: Toxicity in dog assessed as effect on glomerular filtration at 20 mg/kg, po after 3 hrs; assay type: organism-based, Canis lupus familiaris; design: dose 20 mg/kg, route oral; settings: in vivo
[49] = Cmax in Wistar albino Glaxo rat model of absence epilepsy at 1 mg/kg; assay type: ADME, organism-based; design: dose 1 mg/kg; settings: in vivo
[50] = Clearance in dog at 0.5 mg/kg, iv; assay type: ADME, organism-based, Canis lupus familiaris; design: dose 0.5 mg/kg, route intravenous; settings: in vivo
[51] = AUC (0 to 4 hrs) in Wistar albino Glaxo rat model of absence epilepsy at 3 mg/kg; assay type: ADME, organism-based; design: time < 4 hr, dose 3 mg/kg; settings: in vivo
Canis familiaris [52] = assay: Toxicity in dog assessed as effect on plasma electrolytes at 20 mg/kg, po after 3 hrs; assay type: organism-based, Canis lupus familiaris; design: dose 20 mg/kg, route oral; settings: in vivo
[53] = Cmax in dog at 1 mg/kg, po; assay type: ADME, organism-based, Canis lupus familiaris; design: dose 1 mg/kg, route oral; settings: in vivo
[54] = Ratio of drug level in cerebrospinal fluid to plasma in rat after 9 hrs; assay type: ADME, CSF/Plasma
Canis familiaris [55] = assay: Toxicity in dog assessed as effect on ECG intervals at 20 mg/kg, po after 3 hrs; assay type: organism-based, Canis lupus familiaris; design: dose 20 mg/kg, route oral; settings: in vivo
[56] = Drug level in dog plasma at 4.30 mg/kg, iv measured at end of 60 mins infusion; assay type: ADME, organism-based, Canis lupus familiaris; design: dose 4.3 mg/kg, route intravenous; settings: 4.3 mg/kg, read-out: Drug uptake
[57] = molecular target: Voltage-gated inwardly rectifying potassium channel KCNH2 (Homo sapiens, UniProt Q12809)
[58] = Binding affinity to L type calcium channel by binding assay

SMILES: CC(C)(C)CCN1CCC(CNC(=O)c2cc(Cl)cc(Cl)c2)CC1
Activity [1]: 98 nM

SMILES: CC1(C)CC(CN2CCC(F)(CNC(=O)c3cc(Cl)cc(Cl)c3)CC2)CCO1 (racemic)
Activity [2]: 145 nM | Activity [1]: 333 nM

SMILES: CC(C)(C)CCN1CCC(F)(CNC(=O)c2cc(Cl)cc(Cl)c2)CC1
IC50 [57]: 2220 nM | IC50 [58]: 940 nM | Activity [2]: 66 nM | Activity [1]: 64 nM

Further lines, with some results ahead:

Activity [2]: 94 nM | Activity [1]: 297 nM
SMILES: CC1(C)C[C@H](CN2CCC(F)(CNC(=O)c3cc(Cl)cc(Cl)c3)CC2)CCO1
inhibition (INH) (Rattus norvegicus [3]): 63%

bioavailability [5]: 87% | Activity [6]: 93 nM | Tmax [7]: 0.7 h | Vd [8]: 3.8 L/kg | clearance [9]: 13.6 mL/min/kg | AUC(0-t) at 4 h [10]: 2.96 µM·h | half-life [11]: 1.8 h | AUC(0-t) at 24 h [13]: 15.8 µM·h | Cmax [14]: 480 nM | IC50 [15]: 1900 nM | Tmax [16]: 3.1 h | fraction unbound [18]: 0.01 | Activity [19]: 196 nM | fraction unbound [20]: 0.057 | Vd [22]: 1 L/kg | concentration (Canis familiaris [24]): 34500 nM | bioavailability [25]: 44% | inhibition [26]: 18% | Cmax [28]: 190 nM | Kp at 9 h [30]: 6 | AUC(0-t) at 24 h [31]: 3.2 µM·h | bioavailability [32]: 36% | half-life [33]: 4.7 h | Cmax [34]: 1000 nM | clearance [35]: 75 mL/min/kg | half-life [36]: 3.3 h | Activity [2]: 84 nM | concentration at 1 h [37]: 1500 nM | fraction unbound [40]: 0.025 | AUC(0-t) at 4 h [41]: 0.15 µM·h | Ki [42]: < 100 nM | AUC(0-t) at 24 h [43]: 1.94 µM·h | Tmax [44]: 1.5 h | Vd [45]: 10 L/kg | Cmax [47]: 580 nM | Cmax [49]: 60 nM | clearance [50]: 2.3 mL/min/kg | AUC(0-t) at 4 h [51]: 0.54 µM·h | Cmax [53]: 2180 nM | Kp at 9 h [54]: 2.8 | Activity [1]: 181 nM | concentration at 1 h [56]: 4600 nM
SMILES: CC1(C)C[C@@H](CN2CCC(F)(CNC(=O)c3cc(Cl)cc(Cl)c3)CC2)CCO1
Activity (Canis familiaris [4]): Non-toxic | Activity [12]: 30% | Activity (Canis familiaris [17]): Non-toxic | IC50 [21]: 84000 nM | Activity [23]: 115 nM | inhibition (INH) (Rattus norvegicus [3]): 81% | Activity [27]: 84 nM | Activity (Rattus norvegicus [29]): Dose-dependent effect | Activity (Canis familiaris [38]): Toxic | Activity (Canis familiaris [39]): Non-toxic | Activity (Canis familiaris [46]): Non-toxic | Activity (Canis familiaris [48]): Non-toxic | Activity (Canis familiaris [52]): Non-toxic | Activity (Canis familiaris [55]): Non-toxic
